Results: patent US11058772B2, “(Bacterio)chlorophyll photosensitizers for treatment of eye diseases and disorders” (Yeda Research and Development Co. Ltd., priority 2011, dated 2021)

Key:
[1] = test system: de-epithelialized rabbit cornea; test: Depth of penetration into the rabbit cornea, ex vivo (fluorescence microscopy of sagittal slices); type: in vitro ADME
Procedure: Eyes of rabbits were enucleated and deepithelialised mechanically post mortem. The eyes were exposed to Bchl-S solution using an eye cap for 5, 10, and 30 minutes and to Bchl-D solution for 10 and 30 min, in darkness. Controls: untreated eyes, and one eye treated with dextran-500 only for 30 min in darkness. Following this pretreatment, the corneas were briefly rinsed with saline and the central 8-mm buttons were trephined, removed, wrapped in aluminum foil and frozen on dry ice until further use. Central serial corneal sagittal slices (12 μm) were cut with a cryomicrotome, mounted on a microscope glass slide and stored frozen in −70° C. until use. For measurement of fluorescence, the individual slices were placed on the microscope base and a photographic record was immediately taken. Fluorescence intensity of Bchl-S or Bchl-D treated corneas from 3 serial cryo sections was recorded at 760 nm, upon excitation at 740 nm, using a fluorescence microscope (BX61 Olympus, Japan) equipped with CCD camera (Cascade 512B, Roper Sci., USA) and a long pass filter of above 760 nm. The digital data was analyzed, using ImageJ software (NIH, USA).
The penetration depth of the photosensitizer determines the extent of cornea's tissue exposure to the photodynamic effect. In particular, the deeper the penetration, the higher is the probability for endothelial impairment. To resolve the penetration depth of test compounds following different times of incubation, the digitized fluorescence of dissected corneal discs was monitored using fluorescence microscopy as described in Materials and Methods.
The penetration depth of WST11 into the de-epithelialized cornea, following various incubation times, was performed in the darkness in the absence or presence of dextran, using saline or dextran solutions of WST11 (WST11-S or WST11-D solutions, respectively) in 20 eyes of euthanized rabbits. Sagittal frozen sections mounted on glass slides were subjected to fluorescence microscopy. The distribution of WST11 across the cornea was recorded photographically by fluorescence microscopy (excitation/emission 740/760 nm). The controls were 4 untreated eyes and 1 eye treated only with dextran-T 500 for 30 minutes.

rabbit cornea = test: Stress-strain measurements of ex-vivo treated corneas; settings: for Mean Young's Modulus Intensity / Mean ultimate stress Intensity: 30 min incubation then 30 min illumination (NIR for WST11, UVA for RF-D); for Mean Young's Modulus Intensity / Mean ultimate stress Intensity / Mean Young's Modulus Increase % / Mean ultimate stress Increase %: dipotassium salt; for Mean Young's Modulus Increase % / Mean ultimate stress Increase %: 30 min incubation, 30 min NIR, vs untreated fellow eyes
Procedure: Eyes of rabbits (15-16 weeks old, weighting 3-4 Kg) were enucleated post mortem. Before enucleation, the 12 and 6 h position were marked on the sclera for preservation of subsequent cutting orientation. The corneas were de-epithelialized mechanically using a PKR scraper (Becton Dickenson, USA). Usually, about 10 rabbits were assigned to bacteriochlorophyll/NIR treatment, herein the “test group” (for example WST11/NIR), and 2 rabbits were treated by RF/UVA (herein the “RF/UVA group”) for comparison. In the test group, 10 eyes of 10 rabbits were immersed upside down for 30 minutes in test compound saline solution (Bchl-S) followed by NIR illumination (600-900 nm) with a diode laser at 10 mW/cm^2 for 30 minutes. The untreated contralateral eyes served as controls. In the RF/UVA group, RF-D solution was topically applied on 2 eyes of 2 rabbits, every 10 minutes, for 30 minutes, followed by UVA irradiation at 370 nm by a double diode at 3 mW/cm^2, for 30 minutes. After treatment, the corneo-scleral rings were removed and placed on paraffin hemisphere buttons with a matching shape to establish accurate sectioning without tissue stretching. […] The strips included 2 mm of sclera on both ends. Central corneal thickness was measured by ultrasonic pachymetry (Humphrey ultrasonic pachymeter, USA). The corneal strips were then transferred to the biomechanical tester.
The corneal and scleral strips were clamped horizontally, at a distance of 6 mm, between the jaws of a microcomputer-controlled biomaterial tester (Minimat, Germany) with a 200 Newton force cell (FIG. 1). Controlled tightening of screws was performed with a calibrated screwdriver at a preset torque of 9 cN.m (Torqueleader, England). The strain was increased linearly at a rate of 1.0 mm/min and was measured up to tissue rupture. Young's modulus was calculated by the testing machine. Ultimate stress and Young's modulus were expressed in Mega Pascal (MPa) units.
Stress-strain measurements were conducted in 12 rabbits as described in Materials and Methods. Briefly, 10 eyes of 10 rabbits were treated by WST11/NIR, and 2 eyes of 2 rabbits were treated by RF-D/UVA. The contralateral eyes served as control.

[2] = test system: de-epithelialized rabbit cornea; test: Overall accumulation of photosensitizer by the rabbit cornea (optical absorption at 755 nm); type: in vitro ADME; settings: exposure to saline solution for 10, 20 and 30 min; increased with time
Procedure: Eyes of rabbits were de-epithelialised mechanically immediately post mortem. For most studies, 6 rabbits were used, wherein 6 eyes of 6 rabbits were exposed to the bacteriochlorophyll test compound for 10, 20 and 30 minutes (2 eyes for each test) using an eye cap, while the contralateral eyes were left untreated and served as controls. The corneas were removed and the central buttons of 8-mm diameter were punched out with a round trephine and placed onto the outer side of a polymethylmethacrylate cuvette in the area of light beam passage. Absorption spectra were recorded, and optical density (OD) at 600-900 nm (in most cases at 755 nm) was measured using V-570 spectrophotometer (Jam), Japan).
Six eyes of 3 euthanized rabbits were de-epithelialized mechanically immediately post mortem. Five of these eyes were exposed to WST11 in saline (WST11-S solution) for 10, 20 and 30 min, using an eye cap, and the optical absorption at 755 nm of the washed corneas was determined as described in Materials and Methods. One eye served as untreated control.

CCC1C2=Cc3c(C)c(C(=O)NCCS(=O)(=O)[O-])c4[n]3[Pd][n]3c(c(C)c(C(C)=O)c3=CC(=N2)C1C)=CC1=NC(=C4CC(=O)OC)C(CCC(=O)[O-])C1C.[K+].[K+] (centres unmarked) [WST11, Palladium 3^1-oxo-15-methoxycarbonylmethyl-rhodobacteriochlorin 13^1-(2-sulfoethyl)amide dipotassium salt]
stromal thickness after exposure ([1]; 30 min exposure to saline solution, from 360-380 μm): 600-730 μm
penetration depth into corneal stroma ([1]; in saline, no dextran, 10 min exposure, dipotassium salt): half of the corneal stroma
penetration depth into corneal stroma ([1]; in saline, no dextran, 10 min exposure, listed as WST11-S, dipotassium salt): entire outer half of the stroma
penetration depth into corneal stroma ([1]; in saline, no dextran, 30 min exposure, dipotassium salt): entire stroma depth
penetration depth into corneal stroma ([1]; in saline, no dextran, 30 min exposure, listed as WST11-S, dipotassium salt): all the way to Descemet's membrane
penetration depth into corneal stroma ([1]; with dextran-500, 10 min incubation): outer ⅓ of the corneal stroma
penetration depth into corneal stroma ([1]; with dextran-500, 30 min incubation): 50%
Mean Young's Modulus Intensity (rabbit cornea): 17.65 ± 8.25 MPa
Mean ultimate stress Intensity (rabbit cornea): 5.98 ± 2.11 MPa
Mean Young's Modulus Intensity (rabbit cornea; listed as WST11-S): 17.65 MPa
Mean ultimate stress Intensity (rabbit cornea; listed as WST11-S): 5.98 MPa
Mean Young's Modulus Increase % (rabbit cornea): 410%
Mean ultimate stress Increase % (rabbit cornea): 286%
Mean Young's Modulus Increase % (rabbit cornea; listed as WST11-S): 369%
Mean ultimate stress Increase % (rabbit cornea; listed as WST11-S): 267%
increase in the corneal stiffness (rabbit cornea; 30 min pre-incubation then NIR, vs untreated control eyes): ~3 fold
optical density of the impregnated corneas at 755 nm [2]: ≤ 1.71 OD units
